Results as given in patent US20180194762A1 (Pharmacyclics LLC, priority 2017, published 2018).

Target: T1, Btk (Homo sapiens, UniProt Q06187)
T1 construct: purified from insect cells as a full-length construct containing a N-terminal 6X-His tag; His6 (N); made in house; host or cells: insect cells (Method C)
Test: Btk in vitro inhibitory activity (one of Method A TR-FRET, Method B electrophoretic mobility shift, Method C radiometric filter binding)
Format: biochemical
Conditions: method is one of A, B or C, not stated which; read-out: IC50 values against Btk
Experimental: Example 62a: Btk In Vitro Inhibitory Activity (Method A)
Btk kinase activity is determined using a time-resolved fluorescence resonance energy transfer (TR-FRET) methodology. Measurements are performed in a reaction volume of 50 μL using 96-well assay plates. […] The reaction is quenched by the addition of 1.2 equivalents of EDTA (relative to divalent cation) in 25 μL of 1× Lance buffer (Perkin-Elmer). Streptavidin-APC (Perkin-Elmer) and Eu-labeled p-Tyr100 antibody (Perkin-Elmer) in 1× Lance buffer are added in a 25 μL volume to give final concentrations of 100 nM and 2.5 nM, respectively, and the mixture is allowed to incubate for one hour. The TR-FRET signal is measured on a multimode plate reader with an excitation wavelength (λEx) of 330 nm and detection wavelengths (λEm) of 615 and 665 nm. Activity is determined by the ratio of the fluorescence at 665 nm to that at 615 nm. For each compound, enzyme activity is measured at various concentrations of compound. Negative control reactions are performed in the absence of inhibitor in replicates of six, and two no-enzyme controls are used to determine baseline fluorescence levels. Inhibition constants, Ki(app), were obtained using the program BatchKi (Kuzmic et al. (2000), Anal. Biochem. 286:45-50). IC50s are obtained according to the equation:
IC50={Ki(app)/(1+[ATP]/Km^ATP)}+[E]total/2;
For all kinases, [ATP]=Km^ATP, [Btk]total=0.5 nM and [Lck]total=6 nM.
Example 62b: Btk In Vitro Inhibitory Activity (Method B)
Kinase activity is measured in vitro using electrophoretic mobility shift assay. The kinase reactions are assembled in a total volume of 25 μL in 384 well plates. The reactions comprise: BTK enzyme (1 nM, N-terminal His6-tagged, recombinant, full-length, human BTK purified from baculovirus Sf21 insect cell system, 293HEK, or other suitable source), inhibitor, ATP, fluorescently labeled peptide substrate (1 μM, FAM-GEEPLYWSFPAKKK-NH2) in a reaction buffer composed of 100 mM HEPES, pH7.5, 5 mM MgCl2 1 mM DTT, 0.1% bovine serum albumin, 0.01% Triton X-100, and 1% DMSO. The reaction is incubated and is quenched by the addition of termination buffer (100 mM HEPES, pH 7.5, 0.01% Triton X-100, 30 mM EDTA). The terminated reactions are analyzed using a 12 channel LabChip® 3000 microfluidic detection instrument (Caliper Life Sciences). The enzymatic phosphorylation of the peptide results in a change in net charge, enabling electrophoretic separation of product from substrate peptide. As substrate and product peptides are separated, two peaks of fluorescence are observed. Change in the relative fluorescence intensity of the substrate and product peaks is the parameter measured, reflecting enzyme activity. In the presence of an inhibitor, the ratio between product and substrate is altered: the signal of the product decreases, while the signal of the substrate increases.
Activity in each sample is determined as the product to sum ratio (PSR):P/(S+P), where P is the peak height of the product peptide and S is the peak height of the substrate peptide. For each compound, enzyme activity is measured at various concentrations (12 concentrations of compound spaced by 3× dilution intervals). Negative control samples (0%—inhibition in the absence of inhibitor) and positive control samples (100%—inhibition, in the presence of 20 mM EDTA) are assembled in replicates of four and are used to calculate %—inhibition values for each inhibitor at each concentration. Percent inhibition (Pinh) is determined using following equation:
Pinh=(PSR0%−PSRinh)/(PSR0%−PSR100%)*100, where PSRinh is the product sum ratio in the presence of inhibitor, PSR0% is the average product sum ration in the absence of inhibitor and PSR100% is the average product sum ratio in 100%—inhibition control samples.
The IC50 values of inhibitors are determined by 4 parameter sigmoidal dose-response model fitting of the inhibition curves (Pinh versus inhibitor concentration) using XLfit 4 software. […]

T1 sequence (Q06187 whole entry): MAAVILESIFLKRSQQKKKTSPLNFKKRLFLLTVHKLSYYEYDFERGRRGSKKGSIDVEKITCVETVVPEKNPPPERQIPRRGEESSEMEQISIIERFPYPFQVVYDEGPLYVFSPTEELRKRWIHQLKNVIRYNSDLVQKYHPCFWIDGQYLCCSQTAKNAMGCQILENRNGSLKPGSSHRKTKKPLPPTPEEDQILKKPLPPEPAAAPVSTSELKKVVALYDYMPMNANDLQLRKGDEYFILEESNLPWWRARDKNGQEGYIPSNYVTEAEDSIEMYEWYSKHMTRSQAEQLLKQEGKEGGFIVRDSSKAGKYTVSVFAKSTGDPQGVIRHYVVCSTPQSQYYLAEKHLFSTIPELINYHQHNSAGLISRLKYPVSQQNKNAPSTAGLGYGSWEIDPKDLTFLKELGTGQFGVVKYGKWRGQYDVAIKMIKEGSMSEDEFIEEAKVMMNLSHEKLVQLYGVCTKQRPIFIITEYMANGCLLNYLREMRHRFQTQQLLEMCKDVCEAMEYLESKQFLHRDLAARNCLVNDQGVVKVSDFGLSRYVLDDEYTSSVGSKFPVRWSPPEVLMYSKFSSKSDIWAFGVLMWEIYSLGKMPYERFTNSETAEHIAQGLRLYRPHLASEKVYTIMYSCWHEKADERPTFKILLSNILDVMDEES

| IC50 [nM] | Structure (SMILES) |
| --- | --- |
| < 10 | C=CC(=O)N1CC[C@@H](Nc2n[nH]c3nccc(-c4cccc(-n5ccc6cc(C7CC7)cc(F)c6c5=O)c4CO)c23)C1 [Example 18, 6-cyclopropyl-8-fluoro-2-[2-(hydroxymethyl)-3-(3-{[(3R)-1-(prop-2-enoyl)pyrrolidin-3-yl]amino}-1H-pyrazolo[3,4-b]pyridin-4-yl)phenyl]-1,2-dihydroisoquinolin-1-one] |
| < 10 | CC(C)(C)c1nc(C(=O)NCc2ccc(-c3ccnc4[nH]nc(NC5CCNC5)c34)cc2F)no1 (stereo in doubt) [Example 50] |
| < 10 | CC#CC(=O)N1CC[C@@H](Nc2n[nH]c3nccc(-c4ccc(CNC(=O)c5ccc(C(C)(C)C)cc5)c(F)c4)c23)C1 [Example 7, N-{[4-(3-{[(3R)-1-(but-2-ynoyl)pyrrolidin-3-yl]amino}-1H-pyrazolo[3,4-b]pyridin-4-yl)-2-fluorophenyl]methyl}-4-tert-butylbenzamide] |

Same assay, conditions: wild-type Btk; read-out: Btk-WT IC50

| IC50 [nM] | Structure (SMILES) |
| --- | --- |
| 156 | C[C@H]1CC[C@@H](N)CN1c1n[nH]c2nccc(-c3ccc(CNC(=O)c4cc(C(C)(C)C)on4)c(F)c3)c12 [Example 322, N-[(4-{3-[(2S,5R)-5-amino-2-methylpiperidin-1-yl]-1H-pyrazolo[3,4-b]pyridin-4-yl}-2-fluorophenyl)methyl]-5-tert-butyl-1,2-oxazole-3-carboxamide] |
| 509 | CN(C)C(=O)N1CC[C@@H](Nc2n[nH]c3nccc(-c4ccc(CNC(=O)c5coc(C6CCC6)n5)c(F)c4)c23)C1 [Example 328, 2-cyclobutyl-N-{[4-(3-{[(3R)-1-(dimethylcarbamoyl)pyrroli-din-3-yl]amino}-1H-pyrazolo[3,4-b]pyridin-4-yl)-2-fluorophenyl]methyl}-1,3-oxazole-4-carboxamide] |
| 31 | C[C@@H](NC(=O)c1nc(C(C)(C)C)no1)c1ccc(-c2ccnc3[nH]nc(NC4CCCCC4)c23)cc1 [Example 202, 3-tert-butyl-N-[(1R)-1-{4-[3-(cyclohexylamino)-1H-pyrazolo[3,4-b]pyridin-4-yl]phenyl}ethyl]-1,2,4-oxadiazole-5-carboxamide] |
| 64.6 | C[C@H]1CC[C@@H](Nc2n[nH]c3nccc(-c4ccc(CNC(=O)c5noc(C(C)(C)C)n5)cc4CO)c23)CN1C(=O)N(C)C [Example 251, (2S,5R)-5-({4-[4-{[(5-tert-butyl-1,2,4-oxadiazole-3-carbonyl)amino]methyl}-2-(hydroxymethyl)phenyl]-1H-pyrazolo[3,4-b]pyridin-3-yl}amino)-N,N,2-trimethylpiperidine-1-carboxamide] |
| 145 | CC(C)(C)c1noc(C(=O)NCc2ccc(-c3ccnc4[nH]nc(N5CCCC5=O)c34)cc2F)n1 [Example 245, 3-tert-butyl-N-({2-fluoro-4-[3-(2-oxopyrrolidin-1-yl)-1H-pyrazolo[3,4-b]pyridin-4-yl]phenyl}methyl)-1,2,4-oxadiazole-5-carboxamide] |
| 5.64 | CN1C[C@@H](Nc2n[nH]c3nccc(-c4ccc(CNC(=O)c5nc(C(C)(C)C)no5)c(F)c4)c23)CC1=O [Example 392, 3-tert-butyl-N-{[2-fluoro-4-(3-{[(3S)-1-methyl-5-oxopyrrolidin-3-yl]amino}-1H-pyrazolo[3,4-b]pyridin-4-yl)phenyl]methyl}-1,2,4-oxadiazole-5-carboxamide] |
| 531 | CC(C)Cc1cc(C(=O)NCc2ccc(-c3ccnc4[nH]nc(N[C@@H]5CCCN(C(=O)N(C)C)[C@@H]5C)c34)cc2F)no1 [Example 306, (2R,3R)-3-({4-[3-fluoro-4-({[5-(2-methylpropyl)-1,2-oxazole-3-carbonyl]amino}methyl)phenyl]-1H-pyrazolo[3,4-b]pyridin-3-yl}amino)-N,N,2-trimethylpiperidine-1-carboxamide] |
| 175 | CN(C)C(=O)N1CC[C@@H](Nc2n[nH]c3nccc(-c4ccnc(N5CCn6c(cc7c6CC(C)(C)C7)C5=O)c4CO)c23)C1 [Example 299, (3R)-3-({4-[2-(7,7-dimethyl-1-oxo-1,3,4,6,7,8-hexahydro-2H-cyclopenta[4,5]pyrrolo[1,2-a]pyrazin-2-yl)-3-(hydroxymethyl)pyridin-4-yl]-1H-pyrazolo[3,4-b]pyridin-3-yl}amino)-N,N-dimethylpyrrolidine-1-carboxamide] |
| 183 | CN1CCN(c2n[nH]c3nccc(-c4ccc(CNC(=O)c5nc(C(C)(C)C)no5)c(F)c4)c23)C(=O)C1=O [Example 381, 3-tert-butyl-N-({2-fluoro-4-[3-(4-methyl-2,3-dioxopiperazin-1-yl)-1H-pyrazolo[3,4-b]pyridin-4-yl]phenyl}methyl)-1,2,4-oxadiazole-5-carboxamide] |

Target: T2, TEC (Homo sapiens, UniProt P42680)
T2 sequence (P42680 1-631): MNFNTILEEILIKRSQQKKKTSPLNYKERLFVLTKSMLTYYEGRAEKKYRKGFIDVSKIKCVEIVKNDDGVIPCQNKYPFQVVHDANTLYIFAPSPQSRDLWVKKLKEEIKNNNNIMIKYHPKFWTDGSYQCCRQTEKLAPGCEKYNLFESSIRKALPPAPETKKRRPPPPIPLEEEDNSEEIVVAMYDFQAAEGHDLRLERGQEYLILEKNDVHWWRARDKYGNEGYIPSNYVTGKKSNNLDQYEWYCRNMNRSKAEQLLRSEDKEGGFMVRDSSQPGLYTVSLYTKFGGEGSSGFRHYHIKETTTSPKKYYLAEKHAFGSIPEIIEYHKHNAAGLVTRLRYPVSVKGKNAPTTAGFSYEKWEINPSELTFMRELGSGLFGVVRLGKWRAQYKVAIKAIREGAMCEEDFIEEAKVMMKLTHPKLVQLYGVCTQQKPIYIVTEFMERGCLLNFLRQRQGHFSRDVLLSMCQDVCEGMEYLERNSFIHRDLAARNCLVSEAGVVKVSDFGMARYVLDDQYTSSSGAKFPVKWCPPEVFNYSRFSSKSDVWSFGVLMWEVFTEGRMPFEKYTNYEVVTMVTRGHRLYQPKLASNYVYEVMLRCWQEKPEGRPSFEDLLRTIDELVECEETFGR
Test: Inhibition of a panel of kinases (in vitro HotSpot kinase assay, 33P-ATP, 1 μM ATP)
Format: biochemical
Conditions: HotSpot kinase assay, 1 μM ATP
Experimental: Example 63: Inhibition of a Panel of Kinases The degree of inhibition of a panel of kinases is determined using the in vitro HotSpot kinase assay (purified enzymes, ^33P-ATP, an appropriate substrate and 1 μM ATP).

| IC50 [nM] | Structure (SMILES) |
| --- | --- |
| 9680 | C=CC(=O)N1CC[C@@H](Nc2n[nH]c3nccc(-c4ccnc(NC(=O)c5noc(C(C)(C)C)n5)c4C)c23)C1 [Example 288, 5-tert-butyl-N-[3-methyl-4-(3-{[(3R)-1-(prop-2-enoyl)pyrrolidin-3-yl]amino}-1H-pyrazolo[3,4-b]pyridin-4-yl)pyridin-2-yl]-1,2,4-oxadiazole-3-carboxamide] |

Same assay, conditions: ratio of TEC IC50 to Btk IC50 (selectivity)

| TEC/Btk | Structure (SMILES) |
| --- | --- |
| 10 | CC(C)(C)c1ccc(C(=O)Nc2cccc(-c3ccnc4[nH]nc(N[C@H]5CC[C@H](O)CC5)c34)c2)cc1 [Compound 13, 4-tert-butyl-N-[3-(3-{[(1r,4r)-4-hydroxycyclohexyl]amino}-1H-pyrazolo[3,4-b]pyridin-4-yl)phenyl]benzamide] |
| 10 | CC(C)(C)c1ccc(C(=O)Nc2ccc(-c3ccnc4[nH]nc(N[C@H]5CC[C@H](O)CC5)c34)cc2F)cc1 [Compound 15, 4-tert-butyl-N-[2-fluoro-4-(3-{[(1r,4r)-4-hydroxycyclohexyl]amino}-1H-pyrazolo[3,4-b]pyridin-4-yl)phenyl]benzamide] |
| 10 | Cc1c(NC(=O)c2ccc(C(C)(C)C)cc2)cccc1-c1ccnc2[nH]nc(N[C@H]3CC[C@H](O)CC3)c12 [Compound 14, 4-(tert-butyl)-N-(3-(3-(((1r,4r)-4-hydroxycyclohexyl)amino)-1H-pyrazolo[3,4-b]pyridin-4-yl)-2-methylphenyl)benzamide] |
